# Patent US9394299B2, “Rilyazine derivatives and compositions for the treatment of cancer” (Warner Babcock Institute for Green Chemistry, LLC, priority 2013, dated 2016)
# Experiments:
# SN12C (Renal Cancer) = assay: NCI single point 10 μM, SN12C; assay type: cell-based, human; conditions: 10^−5 M
# Procedure: (§1) The screening is a two-stage process, beginning with the evaluation of all compounds against 60 cell lines at a single dose of 10^−5 M.
# (§2) The human tumor cell lines of the cancer screening panel are grown in RPMI 1640 medium containing 5% fetal bovine serum and 2 mM L-glutamine. Cells are inoculated into 96 well microtiter plates in 100 μL at plating densities ranging from 5,000 to 40,000 cells/well depending on the doubling time of individual cell lines. After cell inoculation, the microtiter plates are incubated at 37° C., 5% CO2, 95% air and 100% relative humidity for 24 h prior to addition of experimental drugs. […]
# (§3) Following drug addition, the plates are incubated for an additional 48 h at 37° C., 5% CO2, 95% air, and 100% relative humidity. […] Bound stain is subsequently solubilized with 10 mM trizma base, and the absorbance is read on an automated plate reader at a wavelength of 515 nm. […]
# (§4) For the 1-dose 60 cell testing, the Growth Percent is calculated for each cell line/drug combination from the absorbance measurement for the no-drug control (C), the absorbance at time zero (Tz) and the absorbance measurement after incubation of the cells in the presence of drug (Ti): Growth Percent=[(Ti−Tz)/(C−Tz)]×100 for cell line/drug combinations for which Ti≧Tz. […]
# TK-10 (Renal Cancer) = assay: NCI single point 10 μM, TK-10; assay type: cell-based, human; conditions: 10^−5 M
# Procedure: as §1, §2, §3, §4
# MCF7 (Breast Cancer) = assay: NCI five point dosing, MCF7; assay type: cell-based; conditions: Homo sapiens
# Procedure: RL-4 was evaluated against the 60 cell panel at five concentration levels, 10^−8 M, 10^−7 M, 10^−6 M, 10^−5 M and 10^−4 M.
# as §2, §3
# The percentage growth is calculated at each of the five drug concentrations levels using the seven absorbance measurements, namely absorbance at time zero (Tz), absorbance of control after incubation (C), and absorbance of test sample after incubation in the presence of drug at each of the five concentration levels (Ti). The Growth Percent is calculated as it was for the 1 dose assay: Growth Percent=[(Ti−Tz)/(C−Tz)]×100 for cell line/drug combinations for which Ti≧Tz. […]
# Colo-205 cells = assay: MTT cell proliferation assay, Colo-205; assay type: cell-based; conditions: 72 h-exposure, 30-0.041 μM
# Procedure: (§5) In vitro characterizing of the effects of rilyazine analogs on cell proliferation and apoptosis in the paired epithelial/mesenchymal lines (Colo205/Colo-R, DLD/DLD-SNAIL and MCF7/MCF7-WISP) was performed in an independent laboratory.
# (§6) The Dose Preparation is based on a reconstitute in DMSO. The Concentration of the stock solution is 100 mM. Storage of the stock solution is under −80° C.
# (§7) Working drug solution of rilyazine analogs: A stock solution of 100 mM OTX015 in DMSO was prepared and stored at −80° C. For growth inhibition studies, dilution series were prepared by (1) diluting stock solution into DMSO, then (2) diluting 1:300 in culture medium supplemented with 10% FBS giving a final concentration in 0.3% DMSO in the 96-well plates.
# (§8) Cell lines. Cells lines were maintained in RPMI 1640 (PAA Laboratories, France) supplemented with 10% fetal bovine serum (FBS; PAA Laboratories, France), 2 mM glutamine (PAA Laboratories, France), 100 units/ml penicillin and 100 μg/ml streptomycin (PAA Laboratories, France). Cells were free of Mycoplasma.
# (§9) Proliferation assays. Cell proliferation was determined using the MTT assay (3-[4,5-dimethylthiazol-2-yl]-2,5-diphenyltetrazolium bromide; Sigma-Aldrich, St. Louis, Mo.). […] After incubation, the supernatant was discarded, the cell pellet was resuspended in 0.1 mL DMSO, and the absorbance was measured at 560 nm using a microplate reader (Thermo, France). […]
# MCF-7 cells = assay: MTT cell proliferation assay, MCF-7; assay type: cell-based; conditions: 72 h-exposure, 30-0.041 μM
# Procedure: as §5, §6, §7, §8, §9
smiles,measurement,setting,value
"S=c1c2ncccc2c(-c2ccccn2)nn1C1CCCCC1 [RL-4, 7-cyclohexyl-5-(pyridin-2-yl)pyrido[2,3-d]pyridazine-8(7H)-thione]",Growth Percent,SN12C (Renal Cancer),95.87%
same,Growth Percent,TK-10 (Renal Cancer),120.12%
same,GI50,MCF7 (Breast Cancer),353 nM
same,anti-proliferative effects (in words),Colo-205 cells,dose-dependent anti-proliferative effects
same,anti-proliferative effects (in words),MCF-7 cells,dose-dependent anti-proliferative effects
